Article PMC10607100, “Anticancer and Antiphytopathogenic Activity of Fluorinated Isatins and Their Water-Soluble Hydrazone Derivatives” (International Journal of Molecular Sciences, 2023)
Where two headings read alike, the source gives them in different places.

How the values were obtained:
Assay type in all cases: cell-based
[1] = test system: Xanthomonas campestris B-610; experiment: Agar-well diffusion, bactericidal activity; settings: Xanthomonas campestris
Procedure: Bacteria M. luteus, P. carotovorum subsp. carotovorum, P. atrosepticum, and P. fluorescens were grown in a meat–peptone medium (BP), and X. campestris was grown in the medium with glucose, yeast extract, and calcium carbonate (GYCa). Solid media contained Bacto agar (18 g/L); pH was adjusted to 7.2–7.4. […] For inoculum preparation, both fungal strains were initially grown on the agar GPY in Petri dishes and then transferred into the seed medium by punching out 5 mm of the agar plate culture with a self-designed cutter.
(§1) The antibacterial and antifungal activities of the compounds were explored using the agar-well diffusion method and the technique of mycelial radial growth inhibition. The method of diffusion in agar (measuring the diameter of growth inhibition zones) was used to determine the bactericidal activity. The 6-mm wells were made in agar medium (GYCa for Xanthomonas campestris or BP for other bacteria). Bacterial suspensions were distributed over the agar surface, and the tested compound’s solution (150 μL) was added to each well. The width of growth inhibition zones around the wells was determined after incubation for 36–40 h.

[2] = test system: Pseudomonas fluorescens EL-2.1; experiment: Agar-well diffusion, bactericidal activity; settings: Pseudomonas fluorescens, EL2.1; 2 mM/L; average of 3 experiments; read-out: width of the inhibition zone (mm), Ps. fluorescens
Text: (§2) Plant pathogenic bacterial strains Micrococcus luteus B-109, Pectobacterium atrosepticum 1043, Pectobacterium carotovorum subsp. carotovorum MI, Pseudomonas fluorescens EL-2.1, and Xanthomonas campestris B-610 and the fungal strain Fusarium oxysporum IBPPM 543 were from the Collection of Rhizosphere Microorganisms, IBPPM RAS (WFCC no. 975, WDCM no. 1021) (CM IBPPM, http://collection.ibppm.ru). The pathogenic fungus Phytophthora cactorum VKM F-985, provided by the All-Russian Collection of Microorganisms (VKM) and deposited at the A.E. Favorsky Irkutsk Institute of Chemistry, SB RAS, was also used as a test organism. Bacteria M. luteus, P. carotovorum subsp. carotovorum, P. atrosepticum, and P. fluorescens were grown in a meat–peptone medium (BP), and X. campestris was grown in the medium with glucose, yeast extract, and calcium carbonate (GYCa). Solid media contained Bacto agar (18 g/L); pH was adjusted to 7.2–7.4. All bacterial cultures were grown at 28 °C. The mycelial cultures of F. oxysporum and P. cactorum were grown on a glucose–peptone–yeast (GPY) nutrient medium at 27 °C. For inoculum preparation, both fungal strains were initially grown on the agar GPY in Petri dishes and then transferred into the seed medium by punching out 5 mm of the agar plate culture with a self-designed cutter.
as §1

[3] = test system: Pectobacterium carotovorum subsp. carotovorum MI; experiment: Agar-well diffusion, bactericidal activity; settings: Pectobacterium carotovorum, 2 mM/L
Text: as §2, §1

Micrococcus luteus B-109 = experiment: Agar-well diffusion, bactericidal activity; settings: Micrococcus luteus
Text: as §2, §1

[4] = test system: Pectobacterium atrosepticum 1043; experiment: Agar-well diffusion, bactericidal activity; settings: Pectobacterium atrosepticum, 1043; 2 mM/L; average of 3 experiments; read-out: width of the inhibition zone (mm), P. atrosepticum
Text: as §2, §1

[5] = test system: five representative phytopathogens; experiment: Agar-well diffusion, bactericidal activity over the panel of phytopathogens; settings: 36 h, 2 mM solutions; dependent on the test system used; read-out: inhibition zone width (mm), range over the test systems
Text: as §2, §1

[6] = test system: Fusarium oxysporum IBPPM 543; experiment: Mycelial radial growth inhibition; settings: for inhibition of growth at 1 µM: 1 nmol/mL; for inhibition of growth at 1 µM / inhibition of growth at 5 µM / inhibition of growth at 20 µM / inhibition of growth at 40 µM: read-out: Inhibition value, I (%); for inhibition of growth at 5 µM: 5 nmol/mL; for inhibition of growth at 20 µM: 20 nmol/mL; for inhibition of growth at 40 µM: 40 nmol/mL
Text: as §2
(§3) For the fungicidal activity analysis, radial growth (colony diameters) of the fungi on a solid medium in the absence and in the presence of the compounds 5a–e and 7a–c solutions at various concentrations were compared. The method consisted of the following: A sterile GPY agar medium (20.0 mL), which was melted and then allowed to cool to approximately 60 °C, was mixed with the precisely measured volumes of the solutions under question and poured into a sterile Petri dish (90 mm i.d.). After the solidification of GPY agar, the media were inoculated by the fungus using 10-day-old cultures of F. oxysporum or P. cactorum. The inoculation was conducted by transferring a 5-mm (i.d.) GPY-agar block covered with mycelium to the center of the Petri dish, followed by incubation in a thermostat at 27 °C. The fungicidal effect was scored by the size of the mycelium colony on a Petri dish compared to the control without fungicidal admixtures to GPY agar. Each treatment was performed in at least four replicates in two independent experiments. The observation period ended when the control Petri dish was filled with mycelium (usually after 12 days). […] The solutions of the compounds were prepared with a concentration of 2 mmol/L (stock solution). For comparison, test compounds were also commonly applied as disinfecting agents, and antibiotics were used as a positive control.

[7] = test system: Phytophthora cactorum VKM F-985; experiment: Mycelial radial growth inhibition; settings: for inhibition of growth at 3 µM: 3 nmol/mL; for inhibition of growth at 3 µM / inhibition of growth at 7 µM / inhibition of growth / inhibition of growth at 40 µM: read-out: Inhibition value, I (%); for inhibition of growth at 7 µM: 7 nmol/mL; for inhibition of growth: 27 nmol/mL; for inhibition of growth at 40 µM: 40 nmol/mL
Text: as §2, §3

[8] = Fusarium oxysporum, IBPPM543, 72 h, age of the fungus 3 days
[9] = Fusarium oxysporum, IBPPM543, 120 h, age of the fungus 5 days
[10] = Fusarium oxysporum, IBPPM543, 168 h, age of the fungus 7 days
[11] = Fusarium oxysporum, IBPPM543, 216 h, age of the fungus 9 days
[12] = Phytophthora cactorum, 72 h, age of the fungus 3 days
[13] = Phytophthora cactorum, 120 h, age of the fungus 5 days
[14] = Phytophthora cactorum, 168 h, age of the fungus 7 days
[15] = Phytophthora cactorum, 216 h, age of the fungus 9 days

Cc1ccc[n+](CC(=O)N/N=C2\C(=O)N(Cc3c(F)cccc3Cl)c3ccccc32)c1C [Compound 7b] gave a zone of inhibition at 2000 µM ([1]; B610, 2 mM/L, average of 3 experiments, read-out: width of the inhibition zone (mm), X. campestris) of 7 mm, a zone of inhibition at 2000 µM ([1]; B610, Table S3, 2 mM/L, read-out: Inhibition zone width (mm), not less) of no less than 7 mm and a zone of inhibition at 2000 µM [2] of 4.5 mm. The zone of inhibition at 2000 µM ([3]; average of 3 experiments, read-out: width of the inhibition zone (mm), P. carotovorum subsp. carotovorum) was 5 mm, the zone of inhibition at 2000 µM ([3]; Table S3, read-out: Inhibition zone width (mm), not less) was no less than 5 mm and the zone of inhibition at 2000 µM (Micrococcus luteus B-109; B109, 2 mM/L, average of 3 experiments, read-out: width of the inhibition zone (mm), M. luteus) was 7 mm. For the same compound, the zone of inhibition at 2000 µM (Micrococcus luteus B-109; B109, Table S3, 2 mM/L, read-out: Inhibition zone width (mm), not less) was no less than 7 mm, the zone of inhibition at 2000 µM [4] was 4 mm and the zone of inhibition at 2000 µM [5] was 4 to 7 mm. It also gave an inhibition of growth at 1 µM [6, 8] of 13%, an inhibition of growth at 5 µM [6, 8] of 32% and an inhibition of growth at 20 µM [6, 8] of 35%. It also gave an inhibition of growth at 40 µM [6, 8] of 55%, an EC50 ([6]; Fusarium oxysporum, IBPPM543, 120 h, day 5, read-out: EC50, µg/mL at Day 5, F. oxysporum) of no more than 21 µg/mL and an inhibition of growth at 1 µM [6, 9] of 15%. For the same compound, the inhibition of growth at 5 µM [6, 9] was 29%, the inhibition of growth at 20 µM [6, 9] was 35% and the inhibition of growth at 40 µM [6, 9] was 52%. It also gave an inhibition of growth at 1 µM [6, 10] of 10%, an inhibition of growth at 5 µM [6, 10] of 20% and an inhibition of growth at 20 µM [6, 10] of 30%. The inhibition of growth at 40 µM [6, 10] was 43%, the inhibition of growth at 1 µM [6, 11] was 11% and the inhibition of growth at 5 µM [6, 11] was 13%. For the same compound, the inhibition of growth at 20 µM [6, 11] was 25%, the inhibition of growth at 40 µM [6, 11] was 39% and the “fungicidal action stronger than N-cetylpyridinium chloride” value ([6]; same culture age (5 days)) was 7.0 times. The “inhibition of Fusarium growth greater than fludioxonil” value ([6]; same culture age (5 days)) was 4.1 times, the “antagonistic effect superior to that of N-cetylpyridinium chloride” value ([7]; 5 days of growth) was 1.3 times and the “antagonistic effect superior to that of fludioxonil” value ([7]; 5 days of growth) was 1.1 times. It also gave an inhibition of growth at 3 µM [7, 12] of 15%, an inhibition of growth at 7 µM [7, 12] of 25% and an inhibition of growth [7, 12] of 30%. It also gave an inhibition of growth at 40 µM [7, 12] of 39%, an EC50 ([7]; Phytophthora cactorum, 120 h, day 5, read-out: EC50, µg/mL at Day 5, P. cactorum) of no more than 28 µg/mL and an inhibition of growth at 3 µM [7, 13] of 12%. For the same compound, the inhibition of growth at 7 µM [7, 13] was 25%, the inhibition of growth [7, 13] was 32% and the inhibition of growth at 40 µM [7, 13] was 40%. For the same compound, the inhibition of growth at 3 µM [7, 14] was 9%, the inhibition of growth at 7 µM [7, 14] was 22% and the inhibition of growth [7, 14] was 28%. The inhibition of growth at 40 µM [7, 14] was 37%, the inhibition of growth at 3 µM [7, 15] was 7% and the inhibition of growth at 7 µM [7, 15] was 16%. The inhibition of growth [7, 15] was 21% and the inhibition of growth at 40 µM [7, 15] was 35%.
